Holding throughout (type): cell-based
Assay [1] concerns the target human TRPM8 (Homo sapiens (Human), UniProt Q7Z2W7). The assay is described as follows: Radiometric calcium selectivity assay, CHO cells expressing human TRPM8 (icilin). The conditions noted are these: read-out: IC50 values hTRPM8. As for the experimental part:
(§1) For selectivity screening, CHO cells stably expressing human TRPV1, human TRPV3, human TRPV4, or human TRPM8 were generated in-house and maintained in DMEM F-12 supplemented with 10% FBS and G418. All the cell types were cultured at 37° C. in humidified air containing 5% CO2. Radiometric calcium assay was performed as described above with some minor modifications. Assay was carried out in total volume of 200 μl at 30° C. (for TRPV1), 32° C. (for TRPV3) and 25° C. (for TRPV4 and TRPM8). Agonists used for selectivity screening of the different TRPs are: Capsaicin for TRPV1,2-aminoethoxydiphenyl borate for TRPV3, 4α-phorbol 12,13-didecanoate for TRPV4 and Icilin for TRPM8. After 2-5 minutes of agonist treatment, drug was washed and lysed in lysis buffer as mentioned above. Radioactivity in the lysate was measured in Packard Top count after addition of liquid scintillant.

The target of assay [2] is human TRPV1 (Homo sapiens (Human), UniProt Q8NER1). In words: Radiometric calcium selectivity assay, CHO cells expressing human TRPV1 (capsaicin). The conditions noted are these: read-out: IC50 values hTRPV1. The protocol:
as §1

The target in assay [3] is human TRPA1 (Homo sapiens (Human), UniProt O75762). In words: 45Calcium uptake assay, AITC induced, human TRPA1 expressing CHO cells. The following applies: AITC 30 micromolar, read-out: IC50 values hTRPA1. The protocol: As contemplated herein, the IC50 value is measured by the following method. The inhibition of TRPA1 receptor activation is measured as inhibition of allylisothiocyanate (AITC) induced cellular uptake of radioactive calcium. Test solution of test compound is prepared in a suitable solvent using appropriate method. Human TRPA1 expressing CHO cells are grown in suitable medium. Cells are treated with test compounds followed by addition of AITC. Cells are washed and lysed. Radioactivity in the lysate is measured in Packard Top count after addition of liquid scintillant. The concentration response curves for compounds are plotted as a % of maximal response obtained in the absence of test antagonist, and the IC50 values are calculated from such concentration response curve by nonlinear regression analysis using GraphPad PRISM software.
human TRPA1, sequence (O75762 whole entry): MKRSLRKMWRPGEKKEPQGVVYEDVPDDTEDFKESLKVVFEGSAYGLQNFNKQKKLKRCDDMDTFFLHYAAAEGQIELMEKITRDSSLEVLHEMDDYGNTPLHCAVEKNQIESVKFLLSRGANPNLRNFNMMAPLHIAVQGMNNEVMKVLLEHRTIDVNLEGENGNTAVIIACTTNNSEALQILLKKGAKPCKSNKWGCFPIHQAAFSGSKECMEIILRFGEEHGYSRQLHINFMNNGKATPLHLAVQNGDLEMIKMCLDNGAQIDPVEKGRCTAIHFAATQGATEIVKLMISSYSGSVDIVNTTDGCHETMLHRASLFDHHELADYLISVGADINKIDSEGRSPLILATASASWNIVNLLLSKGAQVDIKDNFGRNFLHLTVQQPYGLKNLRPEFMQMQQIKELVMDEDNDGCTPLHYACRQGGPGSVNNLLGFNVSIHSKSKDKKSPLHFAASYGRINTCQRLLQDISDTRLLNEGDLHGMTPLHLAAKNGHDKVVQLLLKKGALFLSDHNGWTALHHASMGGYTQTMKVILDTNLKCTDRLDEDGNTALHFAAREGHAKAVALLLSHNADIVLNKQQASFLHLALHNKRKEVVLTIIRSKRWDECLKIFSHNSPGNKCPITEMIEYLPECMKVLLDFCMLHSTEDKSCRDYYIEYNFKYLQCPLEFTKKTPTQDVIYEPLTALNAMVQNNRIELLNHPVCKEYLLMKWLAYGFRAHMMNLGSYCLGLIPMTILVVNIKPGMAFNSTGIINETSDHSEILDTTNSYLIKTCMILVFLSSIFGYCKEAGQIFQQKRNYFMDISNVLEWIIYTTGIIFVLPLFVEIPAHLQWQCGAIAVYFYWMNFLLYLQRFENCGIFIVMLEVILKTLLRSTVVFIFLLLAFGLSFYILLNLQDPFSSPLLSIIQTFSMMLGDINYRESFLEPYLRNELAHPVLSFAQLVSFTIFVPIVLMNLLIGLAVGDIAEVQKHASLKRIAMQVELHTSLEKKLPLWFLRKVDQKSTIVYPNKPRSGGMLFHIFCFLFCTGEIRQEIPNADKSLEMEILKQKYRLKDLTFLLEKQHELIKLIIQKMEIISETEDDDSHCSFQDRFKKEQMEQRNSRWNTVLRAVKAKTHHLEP
The illustrative TRPA1 antagonists of the present invention were screened for TRPA1 activity according to a modified procedure described in Tóth, A. et al., Life Sciences 2003, 73, 487-498. The screening of the compounds can be carried out by other methods and procedures known to persons skilled in the art.
Screening for TRPA1 Antagonist Using the 45Calcium Uptake Assay:
The inhibition of TRPA1 receptor activation was measured as inhibition of allylisothiocyanate (AITC) induced cellular uptake of radioactive calcium. Test compounds were dissolved in DMSO to prepare 10 mM stock solution and then diluted using plain medium with 0.1% BSA and 1.8 mM CaCl2 to get desired concentration. Final concentration of DMSO in the reaction was 0.5% (v/v). Human TRPA1 expressing CHO cells were grown in F-12 DMEM medium with 10% FBS, 1% penicillin-streptomycin solution, and 400 μg/ml of G-418. Cells were seeded 24 h prior to the assay in 96 well plates so as to get ˜50,000 cells per well on the day of experiment. Cells were treated with test compounds for 10 min followed by addition of AITC at a final concentration of 30 micromolar and 5 μCi/ml 45Ca+2 for 3 min at 25° C. Cells were washed and lysed using buffer containing 1% Triton X-100, 0.1% deoxycholate and 0.1% SDS. Radioactivity in the lysate was measured in Packard Top count after addition of liquid scintillant.
Concentration response curves were plotted as a % of maximal response obtained in the absence of test antagonist. IC50 value was calculated from concentration response curve by nonlinear regression analysis using GraphPad PRISM software.

Assay [4] concerns the target human TRPV3 (Homo sapiens (Human), UniProt Q8NET8). The assay is described as follows: Radiometric calcium selectivity assay, CHO cells expressing human TRPV3 (2-aminoethoxydiphenyl borate). The conditions noted are these: read-out: IC50 values hTRPV3. As for the experimental part: as §1
Assay [5] concerns the target human TRPV4 (Homo sapiens (Human), UniProt Q9HBA0). The assay is described as follows: Radiometric calcium selectivity assay, CHO cells expressing human TRPV4 (4α-phorbol 12,13-didecanoate). The following applies: read-out: IC50 values hTRPV4. The protocol:
as §1

In general, IC50 refers to the point on the concentration scale where inhibition reaches its midpoint.

human TRPV1, sequence (Q8NER1 whole entry): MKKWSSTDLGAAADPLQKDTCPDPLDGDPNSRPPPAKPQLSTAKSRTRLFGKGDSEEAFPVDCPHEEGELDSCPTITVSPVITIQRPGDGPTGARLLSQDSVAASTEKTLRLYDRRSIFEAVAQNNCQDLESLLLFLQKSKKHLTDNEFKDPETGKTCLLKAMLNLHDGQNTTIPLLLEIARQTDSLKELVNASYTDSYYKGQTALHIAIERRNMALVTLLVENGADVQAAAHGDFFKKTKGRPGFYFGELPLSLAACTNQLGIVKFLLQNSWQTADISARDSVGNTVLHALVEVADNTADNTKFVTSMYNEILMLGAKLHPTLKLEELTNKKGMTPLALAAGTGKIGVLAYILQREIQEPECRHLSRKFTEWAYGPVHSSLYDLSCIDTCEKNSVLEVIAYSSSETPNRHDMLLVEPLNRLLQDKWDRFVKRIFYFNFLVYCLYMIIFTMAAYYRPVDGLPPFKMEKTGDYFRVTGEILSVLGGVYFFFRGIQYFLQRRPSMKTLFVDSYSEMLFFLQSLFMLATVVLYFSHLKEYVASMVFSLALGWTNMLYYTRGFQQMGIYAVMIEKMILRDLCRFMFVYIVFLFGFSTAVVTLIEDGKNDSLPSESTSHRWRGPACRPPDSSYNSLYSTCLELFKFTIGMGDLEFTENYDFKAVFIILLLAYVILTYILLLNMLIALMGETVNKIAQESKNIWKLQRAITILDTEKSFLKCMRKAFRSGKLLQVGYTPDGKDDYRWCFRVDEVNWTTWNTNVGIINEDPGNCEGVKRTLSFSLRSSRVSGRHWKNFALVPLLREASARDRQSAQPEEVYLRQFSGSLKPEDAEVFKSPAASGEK
human TRPM8, sequence (Q7Z2W7 whole entry): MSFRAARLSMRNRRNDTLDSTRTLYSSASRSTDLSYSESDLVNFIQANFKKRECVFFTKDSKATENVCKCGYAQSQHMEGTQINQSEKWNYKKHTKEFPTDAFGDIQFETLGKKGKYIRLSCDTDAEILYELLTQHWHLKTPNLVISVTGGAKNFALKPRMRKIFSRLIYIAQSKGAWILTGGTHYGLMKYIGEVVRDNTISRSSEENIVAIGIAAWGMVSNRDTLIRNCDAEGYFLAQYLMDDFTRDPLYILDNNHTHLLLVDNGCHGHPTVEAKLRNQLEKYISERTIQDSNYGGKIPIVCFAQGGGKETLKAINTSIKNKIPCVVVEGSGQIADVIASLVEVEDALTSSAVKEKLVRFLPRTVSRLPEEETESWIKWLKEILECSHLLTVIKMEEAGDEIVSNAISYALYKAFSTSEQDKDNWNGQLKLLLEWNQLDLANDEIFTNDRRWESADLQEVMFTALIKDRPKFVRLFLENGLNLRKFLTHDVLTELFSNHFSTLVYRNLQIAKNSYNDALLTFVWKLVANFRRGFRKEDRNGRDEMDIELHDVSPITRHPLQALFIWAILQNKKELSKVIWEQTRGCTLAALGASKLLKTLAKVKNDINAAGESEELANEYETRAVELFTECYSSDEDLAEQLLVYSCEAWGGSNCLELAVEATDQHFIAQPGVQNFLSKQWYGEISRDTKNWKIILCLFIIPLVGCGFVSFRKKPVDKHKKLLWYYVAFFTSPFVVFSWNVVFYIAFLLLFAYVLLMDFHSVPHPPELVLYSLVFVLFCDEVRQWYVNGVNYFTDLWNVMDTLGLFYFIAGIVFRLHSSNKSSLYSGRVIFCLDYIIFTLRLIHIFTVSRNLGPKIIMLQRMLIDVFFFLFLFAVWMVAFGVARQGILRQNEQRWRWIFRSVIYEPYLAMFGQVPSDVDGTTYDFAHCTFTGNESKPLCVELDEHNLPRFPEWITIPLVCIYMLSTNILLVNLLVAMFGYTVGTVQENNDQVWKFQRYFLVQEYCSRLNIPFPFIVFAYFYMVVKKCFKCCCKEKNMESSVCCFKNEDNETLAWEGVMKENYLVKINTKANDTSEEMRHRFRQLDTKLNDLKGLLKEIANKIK
human TRPV3, sequence (Q8NET8 whole entry): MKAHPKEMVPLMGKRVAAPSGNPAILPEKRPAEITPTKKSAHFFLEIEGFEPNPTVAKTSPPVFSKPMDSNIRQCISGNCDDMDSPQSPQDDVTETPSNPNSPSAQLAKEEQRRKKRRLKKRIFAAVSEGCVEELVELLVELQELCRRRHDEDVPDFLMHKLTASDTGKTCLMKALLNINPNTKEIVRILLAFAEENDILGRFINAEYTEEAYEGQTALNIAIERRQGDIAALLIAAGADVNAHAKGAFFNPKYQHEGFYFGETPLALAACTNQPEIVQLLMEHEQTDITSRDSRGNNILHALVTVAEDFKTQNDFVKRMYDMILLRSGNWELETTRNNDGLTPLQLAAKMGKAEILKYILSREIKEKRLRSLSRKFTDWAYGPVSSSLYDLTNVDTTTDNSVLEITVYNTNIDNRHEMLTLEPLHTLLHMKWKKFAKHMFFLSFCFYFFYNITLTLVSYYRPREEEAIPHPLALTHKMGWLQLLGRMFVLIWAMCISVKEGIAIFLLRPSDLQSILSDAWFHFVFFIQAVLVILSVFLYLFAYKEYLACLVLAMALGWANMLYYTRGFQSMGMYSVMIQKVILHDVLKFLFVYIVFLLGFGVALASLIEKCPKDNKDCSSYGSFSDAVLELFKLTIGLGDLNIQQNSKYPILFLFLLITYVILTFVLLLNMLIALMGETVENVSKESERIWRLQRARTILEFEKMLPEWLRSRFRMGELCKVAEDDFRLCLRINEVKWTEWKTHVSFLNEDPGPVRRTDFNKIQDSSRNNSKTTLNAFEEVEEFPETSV
human TRPV4, sequence (Q9HBA0 whole entry): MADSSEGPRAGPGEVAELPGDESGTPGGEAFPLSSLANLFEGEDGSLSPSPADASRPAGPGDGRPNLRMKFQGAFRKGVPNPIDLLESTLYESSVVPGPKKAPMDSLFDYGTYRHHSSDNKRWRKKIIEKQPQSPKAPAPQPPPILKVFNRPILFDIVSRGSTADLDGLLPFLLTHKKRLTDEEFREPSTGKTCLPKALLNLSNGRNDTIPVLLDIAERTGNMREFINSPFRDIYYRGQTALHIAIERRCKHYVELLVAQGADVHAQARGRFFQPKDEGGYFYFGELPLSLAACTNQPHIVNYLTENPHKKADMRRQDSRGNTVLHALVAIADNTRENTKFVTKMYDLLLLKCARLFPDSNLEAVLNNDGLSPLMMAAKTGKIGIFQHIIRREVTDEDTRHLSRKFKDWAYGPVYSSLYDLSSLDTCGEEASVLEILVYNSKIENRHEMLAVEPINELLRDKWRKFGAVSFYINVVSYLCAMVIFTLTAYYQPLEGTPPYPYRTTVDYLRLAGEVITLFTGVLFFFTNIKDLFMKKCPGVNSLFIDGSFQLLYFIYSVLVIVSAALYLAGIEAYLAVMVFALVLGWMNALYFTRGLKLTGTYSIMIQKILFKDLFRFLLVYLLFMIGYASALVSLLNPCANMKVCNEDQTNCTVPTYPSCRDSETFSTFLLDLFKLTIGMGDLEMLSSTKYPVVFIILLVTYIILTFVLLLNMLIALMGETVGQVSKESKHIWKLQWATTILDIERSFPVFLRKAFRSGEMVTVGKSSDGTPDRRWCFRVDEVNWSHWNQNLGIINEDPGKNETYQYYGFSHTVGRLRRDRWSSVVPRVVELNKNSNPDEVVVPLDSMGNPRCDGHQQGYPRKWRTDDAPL

Take `CC(C)CCOc1ccc(-c2csc(NC(=O)Cc3cccc4c3c(=O)n(C)c(=O)n4C)n2)cc1` [Compound 22]: the concentration for half-maximal inhibition (IC50) in assay [1] is more than 10 µM; in assay [2] it was more than 10 µM; in assay [3], 0.0798 µM; in assay [4], more than 10 µM; in assay [5] it was more than 1 µM.

In the case of `CC(C)COc1ccc(-c2csc(NC(=O)Cc3cccc4c3c(=O)n(C)c(=O)n4C)n2)cc1` [Compound 23], the IC50 in assay [1] is more than 10 µM; in assay [2], more than 10 µM; in assay [3] it was 0.0439 µM; in assay [4] it was more than 10 µM; in assay [5] it was more than 1 µM.

As for `Cn1c(=O)c2c(CC(=O)Nc3nc(-c4cc(Cl)ccc4F)cs3)cccc2n(C)c1=O` [Compound 24], the 50% inhibitory concentration (IC50) in assay [1] is more than 10 µM; in assay [2], more than 10 µM; in assay [3], 0.138 µM; in assay [4] it was more than 1 µM; in assay [5] it was more than 10 µM.

Regarding `Cn1c(=O)c2c(CC(=O)Nc3nc(-c4cccc(Cl)c4F)cs3)cccc2n(C)c1=O` [Compound 25], the 50% inhibitory concentration (IC50) was more than 10 µM in assay [1]; more than 10 µM in assay [2]; 0.0585 µM in assay [3]; more than 1 µM in assay [4]; more than 1 µM in assay [5].

As for `Cn1c(=O)c2c(CC(=O)Nc3nc(-c4cccc(OC(F)(F)F)c4)cs3)cccc2n(C)c1=O` [Compound 26], the half-inhibitory concentration (IC50) in assay [1] was more than 10 µM; in assay [2], more than 10 µM; in assay [3], 0.0479 µM; in assay [4], more than 1 µM; in assay [5], more than 1 µM.

In the case of `Cn1c(=O)c2c(CC(=O)Nc3nc(-c4cccc(F)c4F)cs3)cccc2n(C)c1=O` [Compound 27], the half-inhibitory concentration (IC50) in assay [1] was more than 10 µM; in assay [2] it was more than 10 µM; in assay [3], 0.0655 µM; in assay [4], more than 10 µM; in assay [5], more than 10 µM.

With `Cn1c(=O)c2c(CC(=O)Nc3nc(-c4ccc(C(F)(F)F)c(F)c4F)cs3)cccc2n(C)c1=O` [Compound 28], the half-maximal inhibitory concentration (IC50) was more than 10 µM in assay [1]; more than 10 µM in assay [2]; 0.00649 µM in assay [3]; more than 1 µM in assay [4]; 0.903 µM in assay [5].

As to `Cn1c(=O)c2c(CC(=O)Nc3nc(-c4ccc(OC(F)(F)F)c(F)c4)cs3)cccc2n(C)c1=O` [Compound 29], the IC50 is more than 10 µM in assay [1]; more than 10 µM in assay [2]; 0.0114 µM in assay [3]; more than 1 µM in assay [4]; more than 10 µM in assay [5].

Regarding `Cn1c(=O)c2c(CC(=O)Nc3nc(-c4ccc(OC(F)F)c(Cl)c4)cs3)cccc2n(C)c1=O` [Compound 30], the half-inhibitory concentration (IC50) is more than 10 µM in assay [1]; more than 10 µM in assay [2]; 0.034 µM in assay [3]; more than 10 µM in assay [4]; more than 10 µM in assay [5].

As to `Cn1c(=O)c2c(CC(=O)Nc3nc(-c4ccc(F)c(C(F)(F)F)c4F)cs3)cccc2n(C)c1=O` [Compound 31], the IC50 in assay [1] is more than 10 µM; in assay [2], more than 10 µM; in assay [3], 0.0173 µM; in assay [4], more than 10 µM; in assay [5] it was more than 10 µM.

For `Cn1c(=O)c2c(CC(=O)Nc3nc(-c4cc(F)c(OCC(F)(F)F)c(F)c4)cs3)cccc2n(C)c1=O` [Compound 32], the 50% inhibitory concentration (IC50) is more than 10 µM in assay [1]; more than 10 µM in assay [2]; 0.00596 µM in assay [3]; more than 10 µM in assay [4]; more than 1 µM in assay [5].

Take `Cn1c(=O)c2c(CC(=O)Nc3nc(-c4cc(F)c(C(F)(F)F)c(F)c4)cs3)cccc2n(C)c1=O` [Compound 33]: the IC50 in assay [1] is more than 10 µM; in assay [2], more than 10 µM; in assay [3], 0.00537 µM; in assay [4], more than 10 µM; in assay [5], less than 1 µM.

With `Cn1c(=O)c2c(ccn2CC(=O)Nc2nc(-c3ccc(OC(F)(F)F)cc3)cs2)n(C)c1=O` [Compound 34], the concentration for half-maximal inhibition (IC50) in assay [1] is more than 10 µM; in assay [2], more than 10 µM; in assay [3], 0.0385 µM; in assay [4], more than 10 µM; in assay [5] it was more than 10 µM.

For `Cn1c(=O)c2c(ccn2CC(=O)Nc2nc(-c3cc(Cl)c(OCCC(F)(F)F)c(Cl)c3)cs2)n(C)c1=O` [Compound 35], the IC50 in assay [1] was more than 10 µM; in assay [2], more than 10 µM; in assay [3] it was 0.0181 µM; in assay [4], more than 10 µM; in assay [5], more than 10 µM.

`Cn1c(=O)c2c(ccn2CC(=O)Nc2nc(-c3ccc(C(F)(F)F)c(F)c3)cs2)n(C)c1=O` [Compound 36]: the IC50 is more than 10 µM in assay [1]; more than 10 µM in assay [2]; 0.0499 µM in assay [3]; more than 10 µM in assay [4]; more than 10 µM in assay [5].

As for `Cn1c(=O)c2c(cnn2CC(=O)Nc2nc(-c3cc(Cl)c(OCC(C)(C)C)c(Cl)c3)cs2)n(C)c1=O` [Compound 37], the 50% inhibitory concentration (IC50) in assay [1] was more than 10 µM; in assay [2] it was more than 10 µM; in assay [3], 0.0123 µM; in assay [4] it was more than 10 µM; in assay [5] it was more than 10 µM.

As to `Cn1nc2c(c1CC(=O)Nc1nc(-c3ccc(C(F)(F)F)c(F)c3)cs1)c(=O)n(C)c(=O)n2C` [Compound 38], the 50% inhibitory concentration (IC50) in assay [1] is more than 10 µM; in assay [2] it was more than 10 µM; in assay [3], 0.0159 µM; in assay [4], more than 10 µM; in assay [5], more than 1 µM.

As to `Cn1nc2c(c1CC(=O)Nc1nc(-c3ccc(C(F)(F)F)cc3)cs1)c(=O)n(C)c(=O)n2C` [Compound 39], the IC50 is more than 10 µM in assay [1]; more than 10 µM in assay [2]; 0.0266 µM in assay [3]; more than 10 µM in assay [4]; more than 1 µM in assay [5].

With `Cn1c(=O)c2c(cnn2CC(=O)Nc2nc(-c3cc(F)c(OCC(C)(C)C)c(F)c3)cs2)n(C)c1=O` [Compound 40], the half-maximal inhibitory concentration (IC50) in assay [1] was more than 10 µM; in assay [2] it was more than 10 µM; in assay [3], 0.0228 µM; in assay [4], more than 10 µM; in assay [5] it was more than 10 µM.

On to `Cn1nc2c(c1CC(=O)Nc1nc(-c3ccc(OC(F)(F)F)c(F)c3)cs1)c(=O)n(C)c(=O)n2C` [Compound 41], for which the IC50 in assay [1] was more than 10 µM; in assay [2], more than 10 µM; in assay [3], 0.011 µM; in assay [4], more than 10 µM; in assay [5] it was more than 1 µM.

As to `Cn1c(=O)c2c(cnn2CC(=O)Nc2nc(-c3cc(F)c(OCC(C)(C)C)c(Cl)c3)cs2)n(C)c1=O` [Compound 42], the IC50 in assay [1] is more than 10 µM; in assay [2], more than 10 µM; in assay [3] it was 0.0114 µM; in assay [4], more than 10 µM; in assay [5], more than 10 µM.

As for `Cn1c(=O)c2c(cnn2CC(=O)Nc2nc(-c3cc(F)c(OCC4CCC4)c(F)c3)cs2)n(C)c1=O` [Compound 43], the IC50 in assay [1] is more than 10 µM; in assay [2], more than 10 µM; in assay [3], 0.0184 µM; in assay [4] it was more than 10 µM; in assay [5], more than 1 µM.

For the compound `Cn1c(=O)c2c(cnn2CC(=O)Nc2nc(-c3ccc(OCC(C)(C)C)c(F)c3)cs2)n(C)c1=O` [Compound 45], the IC50 in assay [1] is more than 10 µM; in assay [2], more than 10 µM; in assay [3] it was 0.0264 µM; in assay [4], more than 1 µM; in assay [5] it was more than 1 µM.

As to `CC(C)c1sc2c(c1CC(=O)Nc1nc(-c3ccc(C(F)(F)F)c(F)c3)cs1)c(=O)n(C)c(=O)n2C` [Compound 46], the IC50 in assay [1] was more than 1 µM; in assay [2], more than 10 µM; in assay [3], 0.0413 µM; in assay [4], more than 10 µM; in assay [5] it was more than 10 µM.

(Values after patent US9186360B2, “Treatment of respiratory disorders using TRPA1 antagonists” (GLENMARK PHARMACEUTICALS S.A., priority 2011, dated 2015).)
